Measurements taken from the supplement of paper PMC10307832.

Columns and labels:
Test in all cases: relative viability (nuclei count vs DMSO), 5 days (fraction); higher = more cells survive
[1] = compound: C1CNCCC1C2=CC(=NN2)C3=CC=NC=C3 + O=C(CCCCCCC(=O)Nc1ccccc1)NO [Vorinostat] (partner 1 µM)
Procedure, shortened: (§1)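 Cells from lung cancer lines were seeded into 1536-well plates and, one day later, dosed by pin tool. Treatments were either a single drug or a fixed dose of an anchor drug with five library-drug doses (not always all listed) in √10 steps. After 5 days, nuclei were stained in a one-step fixation (final 0.05% Triton X-100, 1% formaldehyde, 1 ug/ml Hoechst) and counted on 4× images, and relative viability is the treated-to-vehicle nuclei ratio, as the median of duplicate plates.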

[2] = compound: C1CNCCC1C2=CC(=NN2)C3=CC=NC=C3 + N=C(N)NC(=N)NCCc1ccccc1 [Phenformin] (partner 250 µM)
Procedure, shortened: as §1

[3] = compound: O[C@H]1CC[C@H](Nc2ncc3nc(Nc4c(F)cc(F)cc4F)n([C@H]4CCOC4)c3n2)CC1 [Tanzisertib] + C[C@]1(O)C[C@@H](c2nc(-c3ccc4ccc(-c5ccccc5)nc4c3)c3c(N)nccn32)C1 [Linsitinib] (partner 1 µM)
Procedure, shortened: as §1

[4] = compound: C[C@@H](N)c1ccc(C(=O)Nc2ccnc3[nH]ccc23)cc1 + N=C(N)NC(=N)NCCc1ccccc1 [Phenformin] (partner 250 µM)
Procedure, shortened: as §1

For UMC-11, the relative viability ([1]; first compound 0.08 µM) was 0.394, the relative viability ([1]; first compound 0.8 µM) was 0.419 and the relative viability ([1]; first compound 2.53 µM) was 0.392. The relative viability ([1]; first compound 8 µM) was 0.565, the relative viability ([2]; first compound 0.08 µM) was 0.325 and the relative viability ([2]; first compound 0.8 µM) was 0.209. The relative viability ([2]; first compound 2.53 µM) was 0.348, the relative viability ([2]; first compound 8 µM) was 0.351 and the relative viability ([3]; first compound 0.08 µM) was 1. The relative viability ([3]; first compound 0.253 µM) was 0.954, the relative viability ([3]; first compound 0.8 µM) was 1.03 and the relative viability ([3]; first compound 2.53 µM) was 0.988. It also gave a relative viability ([3]; first compound 8 µM) of 1.06, a relative viability ([4]; first compound 0.04 µM) of 0.268 and a relative viability ([4]; first compound 0.1265 µM) of 0.358. For the same cell line, the relative viability ([4]; first compound 0.4 µM) was 0.354, the relative viability ([4]; first compound 1.265 µM) was 0.228 and the relative viability ([4]; first compound 4 µM) was 0.234.
